This passage reports IC50 results from patent US20120035214A1, “RENIN INHIBITORS” (Merck Canada Inc., priority 2009, published 2012).

The structures appear in SMILES notation.

Experiment [1] concerns the target T1, recombinant renin in human plasma (Homo sapiens, UniProt P00797).
T1 construct: purchased Proteos
T1 sequence (P00797 67-406): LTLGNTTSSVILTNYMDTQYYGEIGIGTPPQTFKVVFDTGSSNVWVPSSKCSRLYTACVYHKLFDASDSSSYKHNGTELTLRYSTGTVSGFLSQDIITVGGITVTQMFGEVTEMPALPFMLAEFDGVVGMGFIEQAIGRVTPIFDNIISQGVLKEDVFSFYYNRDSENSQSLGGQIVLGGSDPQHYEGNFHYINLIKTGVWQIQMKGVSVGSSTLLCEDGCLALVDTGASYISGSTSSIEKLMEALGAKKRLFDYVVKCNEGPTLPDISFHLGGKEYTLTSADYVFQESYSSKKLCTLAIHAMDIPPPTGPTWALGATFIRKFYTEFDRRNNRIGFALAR
Nature of the experiment: Inhibition of renin in human plasma (QFRET, plasma). The conditions noted are these: human EDTA plasma with 1 nM recombinant renin added; 37° C., 1 hour. The class given is biochemical. How it is done: Inhibition of Renin in Human Plasma
Human EDTA-collected plasma is rapidly thawed in warm water and centrifuged at 2900 g for 15 minutes at 4° C. The supernatant is collected and recombinant renin (Proteos) is added at a final concentration of 1 nM. The plasma is transferred to a Costar black 384 well plate (#3573). Renin inhibitors are added from a 17.5 fold concentrated DMSO solution and pre-incubated at 37° C. for 10 minutes. The internally-quench fluorescent peptide QXL520™-[…](5-FAM) (Anaspec), SEQ ID NO: 2, is diluted in 3M Tris pH 7.2, 200 mM EDTA and added to the plasma. The final concentrations are: 6 μM substrate, 342 mM Tris, 23 mM EDTA. The plate is incubated at 37° C. for 1 hour. The plate is read in a SpectraMax Gemini EM reader set at an excitation wavelength of 490 nm and an emission wavelength of 520 nm at times 0 and 1 hour. Background fluorescence at t=0 is subtracted from the measurement at t=1 hour. Inhibitory activity of the compounds is expressed as IC50.

In the next experiment the target is T2, Human recombinant renin (Homo sapiens, UniProt P00797).
T2 construct: purchased Proteos
T2 sequence (P00797 67-406): T1 sequence (P00797 67-406)
Nature of the experiment: Inhibition of human recombinant renin (QFRET, buffer). The following applies: buffer: 50 mM MOPS pH 7.4, 100 mM NaCl, 0.002% Tween 20; 37° C., 3 hours. The class given is biochemical. How it is done:
Inhibition of Human Recombinant Renin
Human recombinant renin (Proteos) in 50 mM MOPS pH 7.4, 100 mM NaCl, 0.002% Tween 20 at a final concentration of […] is incubated with inhibitors from a 50 fold concentrated DMSO solution and 6 μM of an internally-quenched fluorescent peptide: DNP-[…]D,L-Amp (SEQ ID NO: 1); Paschalidou K. et al., Biochem J., 2004, 382, 1031). The reactions take place in a Costar 384 well black plate (#3573) at 37° C. for 3 hours. Fluorescence is measured at times 0 and 3 hours with a SpectraMax Gemini EM reader set at an excitation wavelength of 328 nm and at an emission wavelength of 388 nm. Background fluorescence at t=0 is subtracted from the measurement at t=3 hours. Inhibitory activity of the compounds is expressed as IC50.

One may read the IC50 as the concentration that inhibits the measured activity by half. In the case of `Cc1cc(-c2ccccc2CCNS(C)(=O)=O)ccc1[C@H]1CNCC[C@@H]1c1cc(F)cc(F)c1` (racemic) [Structure 19], the results for the half-maximal inhibitory concentration (IC50) (in experiment [1]; at Human recombinant renin) were 1810 nM and 71 nM, respectively.
With `CC(=O)NCCc1ccccc1-c1onc([C@H]2CNCC[C@]2(OCC(O)CO)c2ccc(F)c(F)c2)c1Br` (stereo partly shown) [Structure 117], the results for the IC50 (in experiment [1]; at Human recombinant renin) were 1.4 nM and 0.37 nM, respectively.
The matching figures for `Cc1cc(-c2ccccc2CCNC(=O)CO)ccc1[C@H]1CNCC[C@@H]1c1cc(F)cc(F)c1` (racemic) [Structure 26]: 30 nM and 1.5 nM.
In the same order, the values of `COC(=O)NCCc1ccccc1-c1ccc([C@H]2CNCC[C@@H]2c2ccc(F)c(F)c2)c(Cl)c1` (racemic) [Structure 42] are 9.8 nM and 0.14 nM.
In the same order, the values of `CCC(=O)NCCc1ccccc1-c1ccc([C@H]2CNCC[C@@H]2c2ccn(C)c(=O)c2)c(Cl)c1` (racemic) [Structure 61] are 7.9 nM and 6.2 nM.
Regarding `COCC(F)(F)COCc1ccc([C@@]2(O)CCNC[C@@H]2c2ccc(-c3ccccc3CCNC(C)=O)cc2C)cc1` (racemic) [Structure 55], the IC50 in experiment [1] was 0.95 nM; at Human recombinant renin, 0.17 nM.
The matching figures for `Fc1ccc([C@H]2CCNC[C@@H]2c2nnc(-c3cccc(Cl)c3Cl)n2C2CC2)cc1F` [Structure 95]: 0.65 nM and 0.15 nM.
In the same order, the values of `CCC(=O)NCCc1ccccc1-c1ccc([C@H]2CNCC[C@@H]2c2cc(F)cc(F)c2)c(C)c1` (racemic) [Structure 18] are 1.3 nM and 0.65 nM.
The matching figures for `COCC(F)(F)COCc1ccc([C@@]2(O)CCNC[C@@H]2c2ccc(-c3ccccc3CCNC(C)=O)cc2C)cn1` [Structure 120]: 1.2 nM and 0.66 nM.
In the case of `Fc1ccc([C@@]2(F)CCNC[C@@H]2c2onc(-c3cccc(Cl)c3Cl)c2Br)cc1F` [Structure 77], the half-maximal inhibitory concentration (IC50) in experiment [1] stood at 7.9 nM; at Human recombinant renin, 0.25 nM.
Consider `Cc1cc(-c2ccccc2CCNC(=O)C(F)(F)F)ccc1[C@H]1CNCC[C@@H]1c1cc(F)cc(F)c1` (racemic) [Structure 20], for which the half-inhibitory concentration (IC50) in experiment [1] turned out to be 25 nM; at Human recombinant renin, 0.57 nM.
The matching figures for `COCCCc1ccc(-c2onc([C@H]3CNCC[C@]3(O)c3ccc(F)c(F)c3)c2Br)c(CCNC(C)=O)c1` [Structure 102]: 1.1 nM and 0.27 nM.
In the same order, the values of `COCCCc1ccccc1-c1ccc([C@H]2CNCC[C@@H]2c2cc(F)cc(F)c2)c(C)c1` (racemic) [Structure 8] are 1180 nM and 4.3 nM.
Regarding `COCC(F)(F)COCc1ccc([C@@]2(O)CCNC[C@@H]2c2ccc(-c3ccccc3CCNC(C)=O)cc2C)nc1` [Structure 123], the IC50 amounted to 5.6 nM in experiment [1] and 1.2 nM at Human recombinant renin.
Consider `CC(=O)NCCc1ccccc1-c1ccc([C@H]2CNCC[C@]2(O)c2ccc(COCCOC(C)C)cc2)c(C)c1` (racemic) [Structure 56], for which the IC50 worked out at 3.8 nM in experiment [1] and 0.26 nM on Human recombinant renin.
The matching figures for `CC(=O)NCCc1ccccc1-c1onc([C@H]2CNCC[C@]2(F)c2ccc(F)c(F)c2)c1Br` [Structure 81]: 0.44 nM and 0.053 nM.
With `Cc1cc(-c2ccccc2CCCO)ccc1[C@H]1CNCC[C@@H]1c1cccc2nc[nH]c12` (racemic) [Structure 9], the figures for the 50% inhibitory concentration (IC50) (in experiment [1]; at Human recombinant renin) were above 9500 nM and 998 nM, respectively.
Consider `COCCCc1ccccc1-c1ccc([C@H]2CNCC[C@@H]2c2cccnc2)c(Cl)c1` (racemic) [Structure 11], for which the IC50 in experiment [1] amounted to 66 nM; at Human recombinant renin, 2.7 nM.
Consider `COC[C@H](C)COCc1ccc([C@@]2(O)CCNC[C@@H]2c2ccc(-c3ccccc3CCNC(C)=O)cc2C)cc1` (racemic) [Structure 54], for which the IC50 in experiment [1] amounted to 1.2 nM; at Human recombinant renin it was 0.13 nM.
Regarding `COC[C@H](C)COCc1ccc([C@@]2(O)CCNC[C@@H]2c2cnc(-c3ccccc3CCNC(C)=O)cc2C)cc1` [Structure 119], the concentration for half-maximal inhibition (IC50) in experiment [1] was determined as 3.6 nM; on Human recombinant renin, 0.15 nM.
